Patent US6235712A, “Non-aqueous polar aprotic peptide formulations” (ALZA Corporation, priority 2000, dated 2001)

How the values were obtained:
[1] = Gelation of peptides in non-aqueous polar aprotic solvents; type: physicochemical; conditions: formulated in non-aqueous polar aprotic solvents; no gelation even after 12 months at 37° C.
Procedure: No gelation was found even after 12 months at 37° C. […] Thus, these solvents have an anti-gellant effect.

[2] = aggregation, gelation and fibrillation; cited from earlier work

gelation [1] | Compound | physical stability in aqueous solution [2]
do not gel | CC(C)C[C@H](NC(=O)[C@@H](COC(C)(C)C)NC(=O)[C@H](Cc1ccc(O)cc1)NC(=O)[C@H](CO)NC(=O)[C@H](Cc1c[nH]c2ccccc12)NC(=O)[C@H](Cc1cnc[nH]1)NC(=O)[C@@H]1CCC(=O)N1)C(=O)N[C@@H](CCCNC(=N)N)C(=O)N1CCC[C@H]1C(=O)NNC(N)=O [goserelin] | –
do not gel | CCNC(=O)[C@@H]1CCCN1C(=O)[C@H](CCCNC(=N)N)NC(=O)[C@H](CC(C)C)NC(=O)[C@@H](CC(C)C)NC(=O)[C@H](Cc1ccc(O)cc1)NC(=O)[C@H](CO)NC(=O)[C@H](Cc1c[nH]c2ccccc12)NC(=O)[C@H](Cc1c[nH]cn1)NC(=O)[C@@H]1CCC(=O)N1 [leuprolide] | –
do not gel | calcitonin | physically unstable
